These results are taken from US9642839B2, “Substance having tyrosine kinase inhibitory activity and preparation method and use thereof” (Institute of Radiation Medicine, China Academy of Military …, priority 2013, dated 2017).

Assay [1] has as its system non-small cell lung cancer (NSCLC). Particulars: 250 mg/day tablet, NSCLC patients with previous chemotherapy, 159 subjects; cited from earlier work.
The next assay deals with L02 cells. In words: MTS cell proliferation, normal liver cells. Type of assay: cell-based. The following applies: L02, normal hepatic cells, 72 hours. How it is done:
[…] After culture at 37° C., 5% CO2 for 72 hours, MTS reagent (Promega Corporation) were added for further culture for 2-4 h.

The test system of assay [2] is protein tyrosine kinase (PTK). In words: PTK activity assay with mouse brain tissue extract (ELISA, OD 492 nm). Type of assay: biochemical. Particulars: at 400 μM. As for the experimental part: Tyrosine kinase buffer: 10 mL 1M HEPES (pH 7.5), 0.4 mL 5% BSA/PBS, 0.2 mL 0.1M Na3VO4, and 1 mL 5M NaCl were added to 88.4 mL double distilled water (DDW) (HEPES: Amresco; Na3VO4: Sigma).
Extraction of tissue extract PTK: mouse brain tissue was quickly removed and weighed, followed by addition of five-fold volumes of pre-cooled homogenization buffer for homogenization. After centrifugation at 4° C., 1,000 g for 10 min, nuclei and cell debris were removed. The supernatant S1 was collected and centrifuged at 4° C., 10,000 g for 20 min, and then the supernatant S2 was collected. The precipitate P2, which represents the crude membrane protein fraction, was retained. S2 included cytoplasmic protein, and was used for testing protein tyrosine kinase (PTK) activity. In the detection of the membrane protein fraction, two-fold volumes of lysis buffer was added to P2, and the resultant was placed on ice for 10 min and centrifuged at 4° C., 10,000 g for 10 min. The supernatant S3, which represents the crude membrane protein including soluble membrane protein, was collected for testing PTK activity. Protein content in cytoplasm or membrane protein was detected by using BCA protein concentration kit (purchased from Beyotime Institute of Biotechnology). The tissue extract was stored at −70° C.
Coating of 96-well plate: PTK substrate was dissolved and added in an amount of 100 μl to each well. The plate was covered with its lid, and incubated at 4° C. overnight (10-12 hours). Then it was washed with 200 μl elution buffer once, and dried at 37° C. for 2 h. After that, it was washed with 10 mM PBS once, dried at room temperature, and then stored at 4° C. for further use.
Groups: blank control: 80 μl 1× tyrosine kinase buffer containing ATP+20 μl 1× tyrosine kinase buffer; negative control: 80 μl 1× tyrosine kinase buffer containing ATP+10 μl 1× tyrosine kinase buffer+7 μl tissue extract+3 μl 1× tyrosine kinase buffer; positive control: 80 μl 1× tyrosine kinase buffer containing ATP+10 μl Gefitinib+7 μl tissue extract+3 μl 1× tyrosine kinase buffer (first, the positive drug was allowed to interact with the tyrosine kinase tissue extract at room temperature for 10 min, and meanwhile the tissue extract for the negative control group was also placed at room temperature for 10 min, and then 80 μl 1× tyrosine kinase buffer containing ATP was added to respective groups); vehicle control: 80 μl 1× tyrosine kinase buffer containing ATP+10 μl DMSO+7 μl tissue extract+3 μl 1× tyrosine kinase buffer; drugs to be screened: 80 μl 1× tyrosine kinase buffer containing ATP+10 μl drug to be tested +7 μl tissue extract+3 μl 1× tyrosine kinase buffer.
PTK activity assay: 1× tyrosine kinase buffer was prepared by evenly mixing 1 mL (10×) tyrosine kinase buffer with 9 mL DDW. The tissue extract was diluted with 1× tyrosine kinase buffer appropriately, mixed with it gently and evenly, and placed on ice. ATP stock solution was dissolved by evenly mixing 48 μl ATP stock solution with 1 mL 1× tyrosine kinase buffer, and placed on ice. The microplate reader was added in respective wells with the groups formulated as above, covered with the lid, and incubated at room temperature for 30 min. The microplate reader was washed with 200 μl elution buffer and tapped until the residual buffer was removed, and this procedure was repeated for five times. To each well, 100 μl antibody diluent (antibody elution buffer diluted at a ratio of 1:2000) was added. The reader was covered with the lid, and incubated at room temperature for 30 min. OPD solution was prepared by addition of 4 mg OPD into a mixture of 4.86 mL 0.1 mol/L citric acid solution and 5.14 mL 0.2 mol/L Na2HPO4 solution, followed by addition of 50 μl 30% H2O2 to allow for complete dissolution, and then was protected from light. The antibody solution was removed. The reader was washed with 200 μl elution buffer and tapped until the residual buffer was removed, and this procedure was repeated for five times.

The subject of a further assay is MKN-45 cells. In words: In vitro antitumor activity, MTS cell proliferation. The class given is cell-based. The following applies: MKN-45, gastric cancer, 72 hours. As for the experimental part: (§1) Method: 14 cell lines (MKN-45 cells, MHCC97-L cells, MHCC97-H cells, HLE cells, HepG2 cells, 7721 cells, L02 cells, A375 cells, H460 cells, A549 cells, SK-N-SH cells, MCF-7 cells, K562 cells, and Ba/F3-Tpr-Met cells (pre-B cells which are malignantly transformed by the c-Met constitutive active mutant Tpr-Met) were seeded into 96-well plate at 1×10^4 cells/well, and each well was added with 150 μl DMEM medium (purchased from Invitrogen) containing 10% fetal bovine serum (purchased from Hyclone). When cell adherent was observed, different concentrations of 2-indolone derivatives (concentrations at 0.1-10 μM) were added, in addition to the negative control (vehicle control group) and blank control (medium group). After culture at 37° C., 5% CO2 for 72 hours, MTS reagent (Promega Corporation) were added for further culture for 2-4 h.

A further assay concerns K562 cells. The assay is described as above. Type of assay: cell-based. The following applies: K562, leukemia, 72 hours. How it is done:
as §1

For a further assay, the system named is MHCC97-L cells. Described as above. The class given is cell-based. The following applies: hepatocellular cancer, 72 hours. How it is done: as §1
The test system of the next assay is MCF-7 cells. The description is as above. The class given is cell-based. Particulars: MCF-7, breast cancer, 72 hours. How it is done:
as §1

The subject of a further assay is Ba/F3-Tpr-Met cells. The description is as above. The following applies: pre-B cell, 72 hours. Type of assay: cell-based. How it is done: as §1
Another assay relates to HLE cells. The description is as above. The class given is cell-based. The following applies: hepatocellular cancer, 72 hours. How it is done:
as §1

The next assay deals with H460 cells. The assay is described as above. The class given is cell-based. Particulars: H460, lung cancer, 72 hours. As for the experimental part:
as §1

The subject of another assay is SK-N-SH cells. The assay is described as above. The class given is cell-based. The following applies: neuroblastoma, 72 hours. As for the experimental part: as §1
Another assay has as its system HepG2 cells. The assay is described as above. The class given is cell-based. The following applies: HepG2, hepatocellular cancer, 72 hours. As for the experimental part: as §1
A further assay concerns A375 cells. The assay is described as above. Type of assay: cell-based. Particulars: A375, skin cancer, 72 hours. How it is done: as §1
The test system of a further assay is A549 cells. Described as above. Type of assay: cell-based, human. The following applies: A549, lung cancer, 72 hours. As for the experimental part: as §1
Another assay has as its system MHCC97-H cells. The assay is described as above. Type of assay: cell-based, human. The following applies: hepatocellular cancer, 72 hours. As for the experimental part:
as §1

Take `COc1cc2ncnc(Nc3ccc(F)c(Cl)c3)c2cc1OCCCN1CCOCC1` [Gefitinib]: the Objective response rate in assay [1] is 27.0%.
On to `CCOc1ccc(NS(=O)(=O)c2ccc3c(c2)C(=Cc2nc4ccccc4[nH]2)C(=O)N3)cc1` [Indo 9, 3-(1H-benzimidazol-2-methylene)-5-(4-ethoxyphenylaminosulfo)-2-indolone], for which the IC50 (in general, the concentration at which inhibition is half-maximal) in the assay on L02 cells was 23200 nM; with MKN-45 cells it was 1720 nM; in the assay with K562 cells, 2640 nM; with MHCC97-L cells, 1310 nM; in the assay on MCF-7 cells it was 1350 nM; in the assay on Ba/F3-Tpr-Met cells, 4910 nM. For the same compound, the IC50 in the assay on HLE cells is 5910 nM; in the assay with H460 cells, 1250 nM; with SK-N-SH cells, 1220 nM; in the assay with HepG2 cells, 5980 nM; with A375 cells it was 2120 nM; in the assay on A549 cells, 2520 nM. The compound also had an IC50 in the assay on MHCC97-H cells of 1170 nM. Also, in [2], the “Inhibition rate on tyrosine kinase” value was determined as 51.3%.
